Results published in patent US9636299B2, “Method for treating diabetic retinopathy” (XAVIER UNIVERSITY OF LOUISIANA, priority 2012, dated 2017).
Residues, ends and D or L forms follow the SMILES beside them.

Legend:
[1] = tested on: endothelial nitric oxide synthase (eNOS); experiment: eNOS expression in high glucose-treated hRMECs (Western blot); type: cell-based, human; details: 100 μM apoEdp, 30 minute treatment
Text: Cell Culture. Primary cultures of human retina microvascular endothelial cells (hRMECs) were purchased from the Applied Cell Biology Research Institute and grown on attachment factor-coated plates in cell systems complete (CSC) medium (Cell Systems, Kirkland, Wash.) supplemented with 20% fetal bovine serum, culture boost (animal derived growth factors) and bac-off (antibiotics). The primary hRMECs were used in their passages 4 to 6. The 18-a.a. apoE mimetic peptide apoEdp (SEQ ID NO:3, Ac-LRKLRKRLLLRKLRKRLL-amide), derived from the human apolipoprotein E receptor-binding region (see SED ID NO:1) between residues 141 and 149, was synthesized (Genemed, Arlington, Tex.) with a purity of greater than 95%. The apoEdp peptide was dissolved in phosphate-buffered saline (“PBS”) at a concentration appropriate for further experimental use. […]
Western Blotting. […] The total protein concentration was determined using a BCA protein assay kit (Pierce, Rockford, Ill.). […] To ensure the equal loading of protein in each lane, each membrane was stripped and re-probed with an antibody against β-actin, and the chemiluminescence was detected as described previously. After scanning the blots with a flatbed scanner, band intensities were analyzed using ImageJ (NIH) and the relative intensity values were normalized to control values. […]

MMP2 = experiment: Laser photocoagulation-induced retinal injury in mice, MMP2 real-time RT-PCR; type: in vivo, mouse; details: apoEdp 40 mg/kg intraperitoneally once each day for 7 days, vs mice without apoEdp
Protocol: (§1) Laser Photocoagulation-Induced Retinopathy. Female mice (C57BL/6J), aged 6-8 weeks, were used for retinal laser photocoagulation studies. The mice were treated and maintained in accordance with the ARVO Statement for the Use of Animals in Ophthalmic and Vision Research. The mice were anesthetized by intraperitoneal injection of a mixture of ketamine (100 mg/kg; Warner Lambert Co., Morris Plains, N.J.) and xylazine (10 mg/kg; Bayer AG, Leverkusen, Germany), and the pupils dilated with 2.5% tropicamide (Alcon, Fort Worth, Tex.). […]
(§2) RNA Extraction, Reverse Transcription, & PCR. […] Gene expression was measured at RNA level per 100 ng of total RNA using one-step RT-PCR kit (Bio-Rad, Hercules, Calif.). Four host genes (mouse GAPDH, mouse MMP2, mouse HPSE-1 (heparanase-1), and mouse MMP9) were analyzed to confirm relative quantitative expression levels. The primer pairs used were specifically designed and synthesized by Qiagen GmbH, Hilden, Germany (Quantitech Primer assay kit, for each host gene, catalog numbers QT01658692, QT00088396, QT00009555, and QT00040040, respectively). One-step Real-time quantitative RT-PCR reactions were performed in a 50-μL volume containing a solution of 1× supermix (iQ SYBR Green; Bio-Rad, Hercules, Calif.), 1 μM mix of forward and reverse primers, and 5 μL total RNA. […] Relative quantitative expression levels were determined for each gene. […]

heparanase = experiment: Laser photocoagulation-induced retinal injury in mice, heparanase real-time RT-PCR; type: in vivo, mouse; details: apoEdp 40 mg/kg intraperitoneally once each day for 7 days, vs mice without apoEdp
Protocol: as §1, §2

## CC(=O)N[C@@H](CC(C)C)C(=O)N[C@@H](CCCNC(=N)N)C(=O)N[C@@H](CCCCN)C(=O)N[C@@H](CC(C)C)C(=O)N[C@@H](CCCNC(=N)N)C(=O)N[C@@H](CCCCN)C(=O)N[C@@H](CCCNC(=N)N)C(=O)N[C@@H](CC(C)C)C(=O)N[C@@H](CC(C)C)C(=O)N[C@@H](CC(C)C)C(=O)N[C@@H](CCCNC(=N)N)C(=O)N[C@@H](CCCCN)C(=O)N[C@@H](CC(C)C)C(=O)N[C@@H](CCCNC(=N)N)C(=O)N[C@@H](CCCCN)C(=O)N[C@@H](CCCNC(=N)N)C(=O)N[C@@H](CC(C)C)C(=O)N[C@@H](CC(C)C)C(N)=O [apoEdp, Ac-LRKLRKRLLLRKLRKRLL-amide] (Ac-LRKLRKRLLLRKLRKRLL-NH2)
[1]
  Elevated expression of eNOS induced by 30 mM D-glucose: prevented
MMP2
  Expression of MMP2 in retina: dramatically reduced
heparanase
  Expression of heparanase in retina: dramatically reduced
